Source: BindingDB's records for patent US12391671 (Dana-Farber Cancer Institute, 2025)

Key:
Experiment in all cases: HTRF-Based EGFR Biochemical Assay
[1] = molecular target: Epidermal growth factor receptor [L858R] (Homo sapiens, UniProt P00533, L858R)
Description: (§1) EGFR biochemical activity measurements were carried out using the homogeneous time-resolved fluorescence (HTRF) assay (Cisbio), inhibitors and DMSO normalizations were first dispensed to empty black low-volume 384-well plates (Corning) with 0300 digital liquid dispenser (HP). All reactions were carried out at room temperature and solutions were added to plates with a Multidrop Combi Reagent Dispenser (ThermoFisher). The reaction mixture (10 μL final volume) contained 1 μM tyrosine kinase peptide-biotin substrate and mutant EGFR in a reaction buffer (50 mM HEPES pH 7.0, 5 mM MgCl2, 1 mM MnCl2, 0.01% BSA, 2 mM TCEP, 0.1 mM NaVO4). Enzyme concentrations were adjusted to accommodate varying kinase activities (L858R 0.1 nM, L858R/T790M 0.02 nM). Enzyme reaction solution (2× concentrations, 5 μL) was added to 384-well plates containing compounds and incubated for 30 mins. Enzyme reactions were initiated with the addition of 5 μL of ATP to a final concentration of 100 μM and reacted for 20 mins. Reactions were quenched with the addition of 10 μL of phospho-tyrosine antibody-Europium(III) cryptate (1-to-180 volume ratio) and Streptavidin-XL665 (46.7 nM) in EDTA-containing detection buffer, then incubated at room temperature for 1 hour, and read with a PHERAstar plate reader (excitation=337 nm, emission=620 nm and 665 nm).

[2] = molecular target: Epidermal growth factor receptor [T790M,L858R] (Homo sapiens, UniProt P00533, L858R/T790M)
Description: as §1

[3] = molecular target: Epidermal growth factor receptor [T790M,L858R] (Homo sapiens, UniProt P00533, T790M/L858R)
Description: as §1

Chain of Epidermal growth factor receptor [T790M,L858R] (Homo sapiens, UniProt P00533, L858R/T790M) (P00533 25-1210 T790M/L858R limits assumed): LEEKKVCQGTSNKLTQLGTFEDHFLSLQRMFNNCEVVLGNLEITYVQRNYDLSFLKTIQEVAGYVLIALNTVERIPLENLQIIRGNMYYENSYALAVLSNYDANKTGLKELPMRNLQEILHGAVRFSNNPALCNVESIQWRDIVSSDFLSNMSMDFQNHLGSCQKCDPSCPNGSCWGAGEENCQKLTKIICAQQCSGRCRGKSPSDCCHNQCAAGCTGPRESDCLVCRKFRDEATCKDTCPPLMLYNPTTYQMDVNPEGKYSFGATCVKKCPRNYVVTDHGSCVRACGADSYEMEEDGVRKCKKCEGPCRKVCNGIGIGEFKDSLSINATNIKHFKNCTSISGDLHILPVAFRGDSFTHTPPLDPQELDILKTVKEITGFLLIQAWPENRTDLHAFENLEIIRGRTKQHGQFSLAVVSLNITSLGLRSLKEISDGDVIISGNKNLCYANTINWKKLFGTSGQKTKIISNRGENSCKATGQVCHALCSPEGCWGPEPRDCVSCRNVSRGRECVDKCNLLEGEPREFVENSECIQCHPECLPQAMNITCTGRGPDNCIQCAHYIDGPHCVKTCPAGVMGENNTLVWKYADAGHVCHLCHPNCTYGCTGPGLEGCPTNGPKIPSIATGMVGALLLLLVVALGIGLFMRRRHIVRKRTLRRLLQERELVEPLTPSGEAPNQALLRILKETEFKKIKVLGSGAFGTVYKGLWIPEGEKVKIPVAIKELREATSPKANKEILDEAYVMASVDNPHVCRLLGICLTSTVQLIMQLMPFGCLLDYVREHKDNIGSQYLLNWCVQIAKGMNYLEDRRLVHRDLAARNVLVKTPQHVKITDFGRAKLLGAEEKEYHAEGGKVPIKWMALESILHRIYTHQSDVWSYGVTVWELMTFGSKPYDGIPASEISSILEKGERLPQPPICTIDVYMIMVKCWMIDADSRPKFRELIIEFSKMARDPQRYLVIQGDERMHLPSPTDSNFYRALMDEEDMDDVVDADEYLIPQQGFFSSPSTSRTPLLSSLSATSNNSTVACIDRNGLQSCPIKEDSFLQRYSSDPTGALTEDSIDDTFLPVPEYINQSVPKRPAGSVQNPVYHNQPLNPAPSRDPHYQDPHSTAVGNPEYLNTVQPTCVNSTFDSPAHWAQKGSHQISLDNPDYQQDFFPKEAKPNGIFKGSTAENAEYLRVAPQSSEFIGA
Chain of Epidermal growth factor receptor [L858R] (P00533 25-1210 L858R limits assumed): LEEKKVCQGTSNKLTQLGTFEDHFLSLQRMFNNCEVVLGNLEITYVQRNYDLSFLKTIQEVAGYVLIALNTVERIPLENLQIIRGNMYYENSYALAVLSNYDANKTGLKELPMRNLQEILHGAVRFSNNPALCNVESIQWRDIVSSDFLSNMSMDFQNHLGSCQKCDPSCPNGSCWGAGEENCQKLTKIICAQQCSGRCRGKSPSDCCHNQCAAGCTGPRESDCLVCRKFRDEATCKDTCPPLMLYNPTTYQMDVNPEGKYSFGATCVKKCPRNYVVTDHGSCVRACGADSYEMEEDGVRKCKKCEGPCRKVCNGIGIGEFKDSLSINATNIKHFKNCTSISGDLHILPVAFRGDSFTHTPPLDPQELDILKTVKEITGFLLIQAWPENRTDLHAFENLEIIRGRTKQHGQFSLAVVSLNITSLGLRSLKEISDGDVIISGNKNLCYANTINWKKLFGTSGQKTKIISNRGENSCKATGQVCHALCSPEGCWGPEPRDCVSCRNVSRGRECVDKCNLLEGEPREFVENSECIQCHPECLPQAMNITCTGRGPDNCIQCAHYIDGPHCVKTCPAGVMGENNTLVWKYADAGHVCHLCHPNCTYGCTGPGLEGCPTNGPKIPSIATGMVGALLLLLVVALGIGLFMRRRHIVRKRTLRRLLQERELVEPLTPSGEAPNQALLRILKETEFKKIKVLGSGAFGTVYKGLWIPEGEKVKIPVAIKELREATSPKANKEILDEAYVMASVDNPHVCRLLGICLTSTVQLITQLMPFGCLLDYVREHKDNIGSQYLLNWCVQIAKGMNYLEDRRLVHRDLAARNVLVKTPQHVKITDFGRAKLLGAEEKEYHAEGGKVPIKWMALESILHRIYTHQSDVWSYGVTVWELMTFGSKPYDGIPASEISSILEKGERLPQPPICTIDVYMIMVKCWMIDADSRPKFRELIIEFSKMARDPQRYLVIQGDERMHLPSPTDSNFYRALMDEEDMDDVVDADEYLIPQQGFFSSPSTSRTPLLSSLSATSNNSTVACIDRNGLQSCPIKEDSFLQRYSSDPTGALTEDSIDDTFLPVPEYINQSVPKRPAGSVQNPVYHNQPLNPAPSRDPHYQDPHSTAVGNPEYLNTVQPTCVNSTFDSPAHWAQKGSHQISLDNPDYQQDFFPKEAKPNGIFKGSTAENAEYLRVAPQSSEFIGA
Chain of Epidermal growth factor receptor [T790M,L858R] (Homo sapiens, UniProt P00533, T790M/L858R) (P00533 25-1210 T790M/L858R limits assumed): as the sequence (P00533 25-1210 T790M/L858R limits assumed) above

Row | IC50 [1] | IC50 [2] | IC50 [3] | SMILES
1 | 6 nM | 2 nM |  | O=C1c2cc(-c3ccc(N4CCNCC4)cc3)ccc2CN1C(c1nc2ccccc2[nH]1)c1cc(F)ccc1O (stereo not drawn) [US12391671, Compound 021]
2 | 2 nM | 0.3 nM |  | CN1CCC(c2ccc(-c3ccc4c(c3F)C(=O)N(C(c3nc5ccccc5[nH]3)c3cc(F)ccc3O)C4)cc2)CC1 (stereo not drawn) [US12391671, Compound 032]
3 | 49 nM | 73 nM |  | CN1CCC(c2ccc(-c3ccc4c(c3)C(=O)N(C(c3nc5ccccc5[nH]3)c3cccc(Cl)c3O)C4)cc2)CC1 (stereo not drawn) [US12391671, Compound 043]
4 | 1 nM |  | 2 nM | CC1=CNC([C@H](c2cc(F)ccc2O)N2CC3=CC=C(c4ccc(C5CCN(C)CC5)cc4)C(F)C3C2=O)N1 (stereo partly drawn) [US12391671, Compound 094]
